Results on nine cell lines are retold here after the supplement of paper PMC10307832.

What all share (assay): relative viability (nuclei count vs DMSO), 5 days (fraction); higher = more cells survive
Compound in the experiment “AT-7519 + OSI-027”: O=C(NC1CCNCC1)c1n[nH]cc1NC(=O)c1c(Cl)cccc1Cl [AT-7519] + COc1cccc2cc(-c3nc([C@H]4CC[C@H](C(=O)O)CC4)n4ncnc(N)c34)[nH]c12 [OSI-027] (partner 0.5 µM)
The method in brief:
(§1)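 Each reported value is a median over duplicate plates. It expresses relative viability: treated-well nuclei count divided by vehicle-well nuclei count. Lung cancer cell lines in 1536-well plates were dosed by pin tool a day after seeding, alone with one drug or with a fixed anchor-drug dose plus five library-drug doses (not always all listed) in √10 steps, and nuclei were counted after 5 days.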

Compound in experiment [1]: C1=CC2=C(C=C(C(=C2N=C1)O)N=NC3=CC4=C(C=C3)C=C(C=C4)S(=O)(=O)O)S(=O)(=O)O + C[C@@H](Oc1cc(-c2cnn(C3CCNCC3)c2)cnc1N)c1c(Cl)ccc(F)c1Cl [Crizotinib] (partner 1 µM)
The method in brief: as §1

Compound in experiment [2]: C1=CC2=C(C=C(C(=C2N=C1)O)N=NC3=CC4=C(C=C3)C=C(C=C4)S(=O)(=O)O)S(=O)(=O)O + CCNC(=O)c1noc(-c2cc(C(C)C)c(O)cc2O)c1-c1ccc(CN2CCOCC2)cc1 [Luminespib] (partner 0.01 µM)
The method in brief:
as §1

Compound in experiment [3]: C1=CC2=C(C=C(C(=C2N=C1)O)N=NC3=CC4=C(C=C3)C=C(C=C4)S(=O)(=O)O)S(=O)(=O)O + Nc1nc2[nH]cc(CCc3ccc(C(=O)N[C@@H](CCC(=O)O)C(=O)O)cc3)c2c(=O)[nH]1 [Pemetrexed] (partner 0.2 µM)
The method in brief: as §1

Take 201T: the relative viability was 0.694 with AT-7519 + OSI-027 (first compound 0.01 µM); 0.739 with AT-7519 + OSI-027 (first compound 0.03162 µM); 1.01 with AT-7519 + OSI-027 (first compound 0.3162 µM); 0.812 with AT-7519 + OSI-027 (first compound 1 µM); 1.1 in experiment [1] (first compound 0.08 µM); 1.07 in experiment [1] (first compound 0.253 µM). For the same cell line, the relative viability was found to be 1.02 in experiment [1] (first compound 0.8 µM); 1.09 in experiment [1] (first compound 2.53 µM); 0.995 in experiment [1] (first compound 8 µM); 1.09 in experiment [2] (first compound 0.08 µM); 1.09 in experiment [2] (first compound 0.253 µM); 1.04 in experiment [2] (first compound 0.8 µM). Also, the relative viability in experiment [2] (first compound 2.53 µM) came out at 1.09; in experiment [2] (first compound 8 µM), 1.04; in experiment [3] (first compound 0.08 µM), 0.324; in experiment [3] (first compound 0.253 µM), 0.319; in experiment [3] (first compound 0.8 µM), 0.341; in experiment [3] (first compound 2.53 µM), 0.332. Moreover, the relative viability in experiment [3] (first compound 8 µM) came out at 0.354.
With A549, the relative viability in experiment [1] (first compound 0.08 µM) was 0.909; in experiment [1] (first compound 0.253 µM), 0.738; in experiment [1] (first compound 0.8 µM), 0.754; in experiment [1] (first compound 2.53 µM), 0.694; in experiment [1] (first compound 8 µM), 0.754.
Regarding A-427, the relative viability with AT-7519 + OSI-027 (first compound 0.01 µM) worked out at 0.419; in the experiment with AT-7519 + OSI-027 (first compound 0.03162 µM) it was 0.389; with AT-7519 + OSI-027 (first compound 0.3162 µM) it was 0.477; with AT-7519 + OSI-027 (first compound 1 µM), 0.187; in experiment [1] (first compound 0.08 µM), 1.05; in experiment [1] (first compound 0.253 µM), 0.814. Besides, the relative viability in experiment [1] (first compound 0.8 µM) is 0.978; in experiment [1] (first compound 2.53 µM), 1; in experiment [1] (first compound 8 µM), 0.876; in experiment [2] (first compound 0.08 µM), 0.891; in experiment [2] (first compound 0.253 µM) it was 0.823; in experiment [2] (first compound 0.8 µM), 0.851. The relative viability in experiment [2] (first compound 2.53 µM) stood at 1.04; in experiment [2] (first compound 8 µM) it was 0.727; in experiment [3] (first compound 0.08 µM), 0.996; in experiment [3] (first compound 0.253 µM) it was 1.02; in experiment [3] (first compound 0.8 µM) it was 0.929; in experiment [3] (first compound 2.53 µM), 1.07. Moreover, the relative viability in experiment [3] (first compound 8 µM) is 0.996.
With ABC-1, the relative viability with AT-7519 + OSI-027 (first compound 0.01 µM) amounted to 0.523; with AT-7519 + OSI-027 (first compound 0.03162 µM), 0.455; with AT-7519 + OSI-027 (first compound 0.3162 µM), 0.326; with AT-7519 + OSI-027 (first compound 1 µM) it was 0.151; in experiment [1] (first compound 0.08 µM), 1.07; in experiment [1] (first compound 0.253 µM), 1.33. Moreover, the relative viability stood at 1.01 in experiment [1] (first compound 0.8 µM); 1.27 in experiment [1] (first compound 2.53 µM); 1.23 in experiment [1] (first compound 8 µM); 0.609 in experiment [2] (first compound 0.08 µM); 0.521 in experiment [2] (first compound 2.53 µM); 0.623 in experiment [2] (first compound 8 µM).
Turning to BEN, the relative viability with AT-7519 + OSI-027 (first compound 0.01 µM) was 0.541; with AT-7519 + OSI-027 (first compound 0.03162 µM) it was 0.278; in the experiment with AT-7519 + OSI-027 (first compound 0.3162 µM) it was 0.55; in the experiment with AT-7519 + OSI-027 (first compound 1 µM), 0.412; in experiment [1] (first compound 0.08 µM), 1.14; in experiment [1] (first compound 0.253 µM), 0.872. Further, the relative viability in experiment [1] (first compound 0.8 µM) was determined as 0.792; in experiment [1] (first compound 2.53 µM), 0.925; in experiment [1] (first compound 8 µM), 0.813; in experiment [2] (first compound 0.08 µM), 0.295; in experiment [2] (first compound 0.253 µM), 0.353; in experiment [2] (first compound 0.8 µM) it was 0.424. For the same cell line, the relative viability worked out at 0.627 in experiment [2] (first compound 2.53 µM); 0.232 in experiment [2] (first compound 8 µM); 0.745 in experiment [3] (first compound 0.08 µM); 0.736 in experiment [3] (first compound 0.253 µM); 0.76 in experiment [3] (first compound 0.8 µM); 0.867 in experiment [3] (first compound 2.53 µM). The relative viability in experiment [3] (first compound 8 µM) stood at 0.61.
Turning to CAL-12T, the relative viability with AT-7519 + OSI-027 (first compound 0.01 µM) stood at 0.673; in the experiment with AT-7519 + OSI-027 (first compound 0.03162 µM), 0.649; with AT-7519 + OSI-027 (first compound 0.3162 µM), 0.296; with AT-7519 + OSI-027 (first compound 1 µM) it was 0.135; in experiment [1] (first compound 0.08 µM), 0.69; in experiment [1] (first compound 0.253 µM), 0.528. For the same cell line, the relative viability was 0.711 in experiment [1] (first compound 0.8 µM); 0.932 in experiment [1] (first compound 2.53 µM); 0.717 in experiment [1] (first compound 8 µM); 0.466 in experiment [2] (first compound 0.08 µM); 0.519 in experiment [2] (first compound 0.253 µM); 0.616 in experiment [2] (first compound 0.8 µM). Besides, the relative viability in experiment [2] (first compound 2.53 µM) came out at 0.207; in experiment [2] (first compound 8 µM) it was 0.335; in experiment [3] (first compound 0.08 µM), 1.25; in experiment [3] (first compound 0.253 µM) it was 1.18; in experiment [3] (first compound 0.8 µM), 1.14; in experiment [3] (first compound 2.53 µM), 1.18. Also, in experiment [3] (first compound 8 µM), the relative viability was found to be 1.13.
As for COR-L23, the relative viability with AT-7519 + OSI-027 (first compound 0.01 µM) came to 0.672; with AT-7519 + OSI-027 (first compound 0.03162 µM) it was 0.778; in the experiment with AT-7519 + OSI-027 (first compound 0.3162 µM), 0.459; with AT-7519 + OSI-027 (first compound 1 µM) it was 0.294; in experiment [1] (first compound 0.08 µM), 0.653; in experiment [1] (first compound 0.253 µM), 0.63. In addition, the relative viability in experiment [1] (first compound 0.8 µM) turned out to be 0.572; in experiment [1] (first compound 2.53 µM), 0.671; in experiment [1] (first compound 8 µM), 0.502; in experiment [2] (first compound 0.08 µM) it was 0.748; in experiment [2] (first compound 0.253 µM), 0.581; in experiment [2] (first compound 0.8 µM) it was 0.64. The relative viability in experiment [2] (first compound 2.53 µM) came out at 0.726; in experiment [2] (first compound 8 µM), 0.738; in experiment [3] (first compound 0.08 µM), 0.206; in experiment [3] (first compound 0.253 µM), 0.202; in experiment [3] (first compound 0.8 µM), 0.2; in experiment [3] (first compound 2.53 µM), 0.199. Moreover, the relative viability in experiment [3] (first compound 8 µM) is 0.192.
As for COR-L 105, the relative viability was found to be 0.6 with AT-7519 + OSI-027 (first compound 0.01 µM); 0.58 in the experiment with AT-7519 + OSI-027 (first compound 0.03162 µM); 0.674 with AT-7519 + OSI-027 (first compound 0.3162 µM); 0.401 with AT-7519 + OSI-027 (first compound 1 µM); 0.999 in experiment [1] (first compound 0.08 µM); 0.71 in experiment [1] (first compound 0.253 µM). The relative viability in experiment [1] (first compound 0.8 µM) is 0.797; in experiment [1] (first compound 2.53 µM) it was 0.881; in experiment [1] (first compound 8 µM) it was 0.717; in experiment [2] (first compound 0.08 µM) it was 0.786; in experiment [2] (first compound 0.253 µM) it was 0.722; in experiment [2] (first compound 0.8 µM), 0.99. Besides, the relative viability in experiment [2] (first compound 2.53 µM) was found to be 0.697; in experiment [2] (first compound 8 µM) it was 0.489; in experiment [3] (first compound 0.08 µM), 1.3; in experiment [3] (first compound 0.253 µM), 1.14; in experiment [3] (first compound 0.8 µM), 1.21; in experiment [3] (first compound 2.53 µM) it was 1.04. Further, the relative viability in experiment [3] (first compound 8 µM) was 1.1.
Turning to Calu-6, the relative viability was 0.96 in experiment [1] (first compound 0.08 µM); 0.761 in experiment [1] (first compound 0.253 µM); 0.763 in experiment [1] (first compound 0.8 µM); 0.817 in experiment [1] (first compound 2.53 µM); 0.821 in experiment [1] (first compound 8 µM).
